The structures appear in SMILES notation.

The record followed here is patent publication US7939541B2, “Intermediates and a process employing the intermediates for the preparation of (3-trifluoromethylsulfonyl)-N-[4-methyl-3-(4-pyridin-3yl-pyrimidin-2ylamino)-phenyl]-benzamide” (Natco Pharma Limited, priority 2004, dated 2011).

In series [1] the test system is Baf3 murine leukemia cells T315I. Briefly: Blast cell count in nude mice implanted with Baf3 T315I cells. Format: in vivo. Particulars: Baf3T315I; Imatinib 10 mg/kg, AN019 20 mg/kg, AN024 20 mg/kg, oral gavage or ip from day 15; day 42. An excerpt: Blood smears were obtained via the tail vein or via the femoral vein every 6th day and blast cells counted and graphically represented.
Abdominal swelling and decrease in activity was monitored daily, blood smear taken via the tail vein or the femoral vein every 6th day and H&E stained as per standard protocols. 42 days after implantation, mice were sacrificed and spleens harvested.
Blood from tail vein or the femoral vein was taken every 6th day from Baf3 cell implanted mice until day 42.
Nude mice were intraperitoneally implanted with Baf3 mutant cells (wt, T315I, M351T or E255K). […] Blood was drawn from the femoral vein or tail vein every 6th day and blast cell count determined and graphically represented.

The test system of a further series is K562luc cells. Kind of series: Determination of drug temporal penetrance (Tp). Format: in vivo, nude mice. Particulars: daily ip from day 15 to day 35, imaged till day 45; AN019 20 mg/kg, AN024 20 mg/kg, Imatinib 10 mg/kg. How it is done: The temporal penetrance was calculated applying the following equation, […].
P=photon counts at day ‘a’, day ‘ter’, or day ‘b’ where ‘a’ is the day when drug treatment was stopped and ‘ter’ is the day when the experiment was terminated and ‘b’ is the day where P is minimum after day a but before day ‘ter’.
n=number of animals alive when P was measured.
The animals were imaged at 6 day intervals post transplantation. […] Drug treatment was stopped on day 35 and animals were imaged till day 45, and calculated as described in methods.

In series [2] the test system is MDAMB231 breast cancer cells. Briefly: In vitro angiogenic assay, MDA-MB-231 conditioned media on human dermal endothelial cells. Format: cell-based. The following applies: MDA-MB-231 cells, with radiation. The protocol:
The in vitro angiogenesis of 4910, 5310 and U87 glioma cells and MDAMB231 and ZR71 breast cancer cells in the presence of specified concentrations of compounds were determined as follows, cells (2×10^4/well) were seeded in 8-well chamber slides and were treated with various concentrations of test compounds. After a 24 h incubation period, the conditioned media was removed and added to a 4×10^4 human dermal endothelial cell (monolayer in 8-well chamber slides) and the human dermal endothelial cells were allowed to grow for 72 h. Cells were then fixed in 3.7% formaldehyde and stained with H&E and photographed.

The subject of another series is K562. Briefly: ED50 and therapeutic index in leukemic mice (K562). Format: in vivo. The following applies: Mus musculus, K562, po, read-out: ED50 (po) Mice.
The nature of another series: in vivo. Particulars: mouse.

The term ED50 denotes the dose that gives a 50% effect, or the effect in half of the subjects. The LD50 is the dose expected to kill half of the subjects tested. A high value points to a less toxic substance. In the case of `Cc1ccc(NC(=O)c2cccc(S(=O)(=O)C(F)(F)F)c2)cc1Nc1nccc(-c2cccnc2)n1` [AN024, (3-trifluoromethylsulfonyl)-N-[4-methyl-3-(4-pyridin-3yl-pyrimidin-2ylamino)-phenyl]-benzamide], in series [1], the “blast cell count in blood smears” value was “significant decrease in blast cell count”. For the same compound, the “temporal penetrance (Tp)” value in the series on K562luc cells is given as 2.4. In addition, the inhibition of angiogenesis result in series [2] is reported as “only a slight inhibition”. In addition, in the series with K562, the ED50 was 10 mg/kg. The same compound displayed an MTD in “in vivo” of 500 mg/kg. Besides, the LD50 in the series “in vivo” (po) came out at 1440 mg/kg.
